# Data reported in patent US10933056B2, “3-(1H-pyrazol-4-yl)pyridine allosteric modulators of the M4 muscarinic acetylcholine receptor” (Merck Sharp & Dohme Corp., priority 2015, dated 2021).
# Molecular target: T1, human M4 muscarinic acetylcholine receptor (Homo sapiens, UniProt P08173)
# T1 construct: expressed in transfected cells; host or cells: CHO-K1
# T1 sequence (P08173 1-479): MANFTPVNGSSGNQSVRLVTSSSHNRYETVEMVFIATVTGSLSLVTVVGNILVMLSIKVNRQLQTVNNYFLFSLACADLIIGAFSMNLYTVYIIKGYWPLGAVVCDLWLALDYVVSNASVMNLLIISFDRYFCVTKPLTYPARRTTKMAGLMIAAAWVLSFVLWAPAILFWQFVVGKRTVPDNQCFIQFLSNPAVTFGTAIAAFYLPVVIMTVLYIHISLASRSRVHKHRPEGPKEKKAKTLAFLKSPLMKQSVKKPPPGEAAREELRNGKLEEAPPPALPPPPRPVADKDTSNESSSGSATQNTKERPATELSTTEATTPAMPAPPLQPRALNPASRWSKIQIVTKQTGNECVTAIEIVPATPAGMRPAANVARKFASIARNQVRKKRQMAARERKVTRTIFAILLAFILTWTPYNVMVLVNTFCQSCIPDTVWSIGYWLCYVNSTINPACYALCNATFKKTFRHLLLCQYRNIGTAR
# Assay: human FLIPR-based M4 PAM assay (calcium mobilization in CHO-K1 cells with human M4 receptor and Gαqi5)
# Format: cell-based
# Settings: inflection point of dose response curve, acetylcholine at 20% of maximum response, FLIPR Tetra, read-out: M4 PAM IP
# How it was run: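 CHO-K1 cells stably expressing human M4 and chimeric Gαqi5 were dye-loaded ~1 h at 37° C. Test compound was added with fluorescence recorded 4 min, then acetylcholine at EC20 (sometimes a further EC70 addition) with reading 3.5 min. Value is the inflection point of a 4-parameter logistic fit.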
row,Compound,EC50
1,"CN1Cc2ccc(-c3nc(Cl)cc(N)c3-c3cnn(CC4(C)CCCC4)c3)cc2C1=O [Example 63, 6-(4-amino-6-chloro-3-(1-((1-methylcyclopentyl)methyl)-1H-pyrazol-4-yl)pyridin-2-yl)-2-methylisoindolin-1-one]",489 nM
2,"CC1(Cn2cc(-c3ccc(C#N)nc3-c3ccc4c(c3)C(=O)NC4(C)C)cn2)CCCC1 [Example 64, 6-(1,1-dimethyl-3-oxoisoindolin-5-yl)-5-(1-((1-methylcyclopentyl)methyl)-1H-pyrazol-4-yl)picolinonitrile]",119 nM
3,"Cc1ccc(-c2cnn(CC3(C)CCCC3)c2)c(-c2ccc3c(c2)C(=O)N(CC2CC2)C3)n1 [Example 65, 2-(cyclopropylmethyl)-6-(6-methyl-3-(1-((1-methylcyclopentyl)methyl)-1H-pyrazol-4-yl)pyridin-2-yl)isoindolin-1-one]",136 nM
4,"COCCN1Cc2ncc(-c3nc4c(cc3-c3cnn(CC5(C)CCCC5)c3)CCC4)cc2C1=O [Example 70, 6-(2-methoxyethyl)-3-(3-(1-((1-methylcyclopentyl)methyl)-1H-pyrazol-4-yl)-6,7-dihydro-5H-cyclopenta[b]pyridin-2-yl)-6,7-dihydro-5H-pyrrolo[3,4-b]pyridin-5-one]",47 nM
5,"CN1C(=O)c2cc(-c3nc4c(cc3-c3cnn(CC5(C)CCCC5)c3)CCC4)cnc2C1(C)C [Example 71, 6,7,7-trimethyl-3-(3-(1-((1-methylcyclopentyl)methyl)-1H-pyrazol-4-yl)-6,7-dihydro-5H-cyclopenta[b]pyridin-2-yl)-6,7-dihydro-5H-pyrrolo[3,4-b]pyridin-5-one]",35 nM
6,"Cc1ccc(-c2cnn(CC3CCCC3)c2F)c(-c2ccc3c(c2)C(=O)N(C)C3)n1 [Example 76, 6-(3-(1-(cyclopentylmethyl)-5-fluoro-1H-pyrazol-4-yl)-6-methylpyridin-2-yl)-2-methylisoindolin-1-one]",9 nM
7,"CC1(Cn2cc(-c3ccc(C#N)nc3-c3ccc4c(c3)C(=O)N(C3COC3)C4)cn2)CCCC1 [Example 82, 5-(1-((1-methylcyclopentyl)methyl)-1H-pyrazol-4-yl)-6-(2-(oxetan-3-yl)-3-oxoisoindolin-5-yl)picolinonitrile]",310 nM
8,"O=C1c2cc(-c3ncccc3-c3cnn(CC4CCCC4)c3)ccc2CN1c1ccccc1 [Example 83, 6-(3-(1-(cyclopentylmethyl)-1H-pyrazol-4-yl)pyridin-2-yl)-2-phenylisoindolin-1-one]",100 nM
9,"O=C1c2cc(-c3ncccc3-c3cnn(CC4CCCC4)c3)ccc2CN1CC1CCCO1 (stereo not drawn) [Example 85, 6-(3-(1-(cyclopentylmethyl)-1H-pyrazol-4-yl)pyridin-2-yl)-2-((tetrahydrofuran-2-yl)methyl)isoindolin-1-one]",60 nM
10,"O=C1c2cc(-c3ncccc3-c3cnn(CC4CCCC4)c3)ccc2CN1CC1CCC1 [Example 86, 2-(cyclobutylmethyl)-6-(3-(1-(cyclopentylmethyl)-1H-pyrazol-4-yl)pyridin-2-yl)isoindolin-1-one]",62 nM
11,"N#CC1(N2Cc3ccc(-c4ncccc4-c4cnn(CC5CCCC5)c4)cc3C2=O)CC1 [Example 87, 1-(6-(3-(1-(cyclopentylmethyl)-1H-pyrazol-4-yl)pyridin-2-yl)-1-oxoisoindolin-2-yl)cyclopropane-1-carbonitrile]",319 nM
12,"CNC(=O)C1(N2Cc3ccc(-c4ncccc4-c4cnn(CC5CCCC5)c4)cc3C2=O)CC1 [Example 90, 1-(6-(3-(1-(cyclopentylmethyl)-1H-pyrazol-4-yl)pyridin-2-yl)-1-oxoisoindolin-2-yl)-N-methylcyclopropane-1-carboxamide]",359 nM

# Second part, the molecule after the results:
row,EC50,Compound
1,39 nM,"CC1(Cn2cc(-c3cc4c(nc3-c3cnc5c(c3)C(=O)N(CCF)C5)CCC4)cn2)CCCC1 [Example 66, 6-(2-fluoroethyl)-3-(3-(1-((1-methylcyclopentyl)methyl)-1H-pyrazol-4-yl)-6,7-dihydro-5H-cyclopenta[b]pyridin-2-yl)-6,7-dihydro-5H-pyrrolo[3,4-b]pyridin-5-one]"
2,23 nM,"CN1Cc2ccc(-c3nc(CF)ccc3-c3cnn(CC4(C)CCCC4)c3F)cc2C1=O [Example 68, 6-(3-(5-fluoro-1-((1-methylcyclopentyl)methyl)-1H-pyrazol-4-yl)-6-(fluoromethyl)pyridin-2-yl)-2-methylisoindolin-1-one]"
3,34 nM,"CC1(Cn2cc(-c3cc4c(nc3-c3cnc5c(c3)C(=O)N(CCC#N)C5)CCC4)cn2)CCCC1 [Example 69, 3-(3-(3-(1-((1-methylcyclopentyl)methyl)-1H-pyrazol-4-yl)-6,7-dihydro-5H-cyclopenta[b]pyridin-2-yl)-5-oxo-5,7-dihydro-6H-pyrrolo[3,4-b]pyridin-6-yl)propanenitrile]"
4,41 nM,CN1C(=O)c2cc(-c3nc(C#N)ccc3-c3cnn(CC4(C)CCCC4)c3)ccc2C1(C)C [Example 72]
5,52 nM,"COCCN1Cc2ccc(-c3nc4c(cc3-c3cnn(CC5(C)CCCC5)c3)CCC4)cc2C1=O [Example 73, 2-(2-methoxyethyl)-6-(3-(1-((1-methylcyclopentyl)methyl)-1H-pyrazol-4-yl)-6,7-dihydro-5H-cyclopenta[b]pyridin-2-yl)isoindolin-1-one]"
6,24 nM,"CN1Cc2ncc(-c3nc4c(cc3-c3cnn(CC5(C)CCCC5)c3F)CCC4)cc2C1=O [Example 74, 3-(3-(5-fluoro-1-((1-methylcyclopentyl)methyl)-1H-pyrazol-4-yl)-6,7-dihydro-5H-cyclopenta[b]pyridin-2-yl)-6-methyl-6,7-dihydro-5H-pyrrolo[3,4-b]pyridin-5-one]"
7,80 nM,"Cc1cc(-c2cnn(CC3(C)CCCC3)c2F)c(-c2ccc3c(c2)C(=O)N(C)C3)nc1Cl [Example 75, 6-(6-chloro-3-(5-fluoro-1-((1-methylcyclopentyl)methyl)-1H-pyrazol-4-yl)-5-methylpyridin-2-yl)-2-methylisoindolin-1-one]"
8,85 nM,"Cc1cc(-c2cnn(CC3(C)CCCC3)c2)c(-c2ccc3c(c2)C(=O)N(C)C3)nc1CO [Example 77, 6-(6-(hydroxymethyl)-5-methyl-3-(1-((1-methylcyclopentyl)methyl)-1H-pyrazol-4-yl)pyridin-2-yl)-2-methylisoindolin-1-one]"
9,32 nM,"CN1Cc2ccc(-c3nc(C#N)c(Cl)cc3-c3cnn(CC4(C)CCCC4)c3)cc2C1=O [Example 78, 3-chloro-6-(2-methyl-3-oxoisoindolin-5-yl)-5-(1-((1-methylcyclopentyl)methyl)-1H-pyrazol-4-yl)picolinonitrile]"
10,108 nM,"CN1Cc2ccc(-c3nc(C#N)ccc3-c3cnn(CC4(C)CCCC4)c3Cl)cc2C1=O [Example 79, 5-(5-chloro-1-((1-methylcyclopentyl)methyl)-1H-pyrazol-4-yl)-6-(2-methyl-3-oxoisoindolin-5-yl)picolinonitrile]"
11,26 nM,"CN1Cc2ncc(-c3nc(C(F)F)ccc3-c3cnn(CC4(C)CCCC4)c3)cc2C1=O [Example 80, 3-(6-(difluoromethyl)-3-(1-((1-methylcyclopentyl)methyl)-1H-pyrazol-4-yl)pyridin-2-yl)-6-methyl-6,7-dihydro-5H-pyrrolo[3,4-b]pyridin-5-one]"
12,46 nM,"CN1Cc2ncc(-c3nc(C(F)(F)F)ccc3-c3cnn(CC4(C)CCCC4)c3)cc2C1=O [Example 81, 6-methyl-3-(3-(1-((1-methylcyclopentyl)methyl)-1H-pyrazol-4-yl)-6-(trifluoromethyl)pyridin-2-yl)-6,7-dihydro-5H-pyrrolo[3,4-b]pyridin-5-one]"
13,47 nM,"O=C1c2cc(-c3ncccc3-c3cnn(CC4CCCC4)c3)ccc2CN1CC1CC1 [Example 84, 6-(3-(1-(Cyclopentylmethyl)-1H-pyrazol-4-yl)pyridin-2-yl)-2-(cyclopropylmethyl)isoindolin-1-one]"
14,240 nM,"O=C1c2cc(-c3ncccc3-c3cnn(CC4CCCC4)c3)ccc2CN1C1COC1 [Example 88, 6-(3-(1-(cyclopentylmethyl)-1H-pyrazol-4-yl)pyridin-2-yl)-2-(oxetan-3-yl)isoindolin-1-one]"
15,32 nM,"O=C1c2cc(-c3ncccc3-c3cnn(CC4CCCC4)c3)ccc2CN1C1CCC1 [Example 89, 2-cyclobutyl-6-(3-(1-(cyclopentylmethyl)-1H-pyrazol-4-yl)pyridin-2-yl)isoindolin-1-one]"
16,49 nM,"NS(=O)(=O)c1ccc(CCN2Cc3ccc(-c4ncccc4-c4cnn(CC5CCCC5)c4)cc3C2=O)cc1 [Example 91, 4-(2-(6-(3-(1-(cyclopentylmethyl)-1H-pyrazol-4-yl)pyridin-2-yl)-1-oxoisoindolin-2-yl)ethyl)benzenesulfonamide]"
17,45 nM,"O=C1c2cc(-c3ncccc3-c3cnn(CC4CCCC4)c3)ccc2CN1CCc1ccccc1 [Example 92, 6-(3-(1-(cyclopentylmethyl)-1H-pyrazol-4-yl)pyridin-2-yl)-2-phenethylisoindolin-1-one]"
18,58 nM,"O=C1c2cc(-c3ncccc3-c3cnn(CC4CCCC4)c3)ccc2CN1C1CC1 [Example 93, 6-(3-(1-(cyclopentyl-methyl)-1H-pyrazol-4-yl)pyridin-2-yl)-2-cyclopropylisoindolin-1-one]"
